Laboratory results as given in patent US4118561A, “7-(Substituted)-7H-pyrrolo[3,2-f]quinazoline-1,3-diamines” (priority 1977, dated 1978).
Values after ≈ are worked out from the molar mass of the structure shown.

Experiments:
[1] = tested on: N. catarrhalis 8193; test: In vitro antibacterial activity (MIC), N. catarrhalis 8193; conditions: 18 h
[2] = tested on: P. vulgaris 6896; test: In vitro antibacterial activity (MIC), P. vulgaris 6896; conditions: Proteus vulgaris, 6896, 18 h
[3] = tested on: E. coli 9637; test: In vitro antibacterial activity (MIC), E. coli 9637; conditions: Escherichia coli, 9637, 18 h
[4] = tested on: S. aureus Smith; test: In vitro antibacterial activity (MIC), S. aureus Smith; conditions: Staphylococcus aureus, 18 h
[5] = tested on: K. pneumoniae 10031; test: In vitro antibacterial activity (MIC), K. pneumoniae 10031; conditions: Klebsiella pneumoniae, 10031, 18 h
[6] = tested on: S. paratyphi 11737; test: In vitro antibacterial activity (MIC), S. paratyphi 11737; format: cell-based; conditions: Salmonella enterica, 18 h
[7] = tested on: S. aureus 53-180; test: In vitro antibacterial activity (MIC), S. aureus 53-180; conditions: Staphylococcus aureus, 53180, 18 h

| Compound | MIC [1] [µg/mL] | MIC [2] [µg/mL] | MIC [3] [µg/mL] | MIC [4] [µg/mL] | MIC [5] [µg/mL] | MIC [6] [µg/mL] | MIC [7] [µg/mL] |
| --- | --- | --- | --- | --- | --- | --- | --- |
| Nc1nc(N)c2c(ccc3c2ccn3-c2cnccn2)n1 [Example 85] | 0.122 (≈ 0.44 µM) | 3.9 (≈ 14.1 µM) | 0.976 (≈ 3.52 µM) | 3.9 (≈ 14.1 µM) | 0.976 (≈ 3.52 µM) | 3.9 (≈ 14.1 µM) | 1.95 (≈ 7.03 µM) |
| Nc1nc(N)c2c(ccc3c2ccn3-c2ccc3ccccc3n2)n1 [Example 86] | 0.122 (≈ 0.374 µM) | > 250 | > 250 | > 250 | > 250 | > 250 | > 250 |
| Nc1nc(N)c2c(ccc3c2ccn3-c2ccnc3ccccc23)n1 [Example 87] | 0.031 (≈ 0.095 µM) | 1.95 (≈ 5.97 µM) | 0.488 (≈ 1.5 µM) | 0.031 (≈ 0.095 µM) | 0.031 (≈ 0.095 µM) | 0.976 (≈ 2.99 µM) | 0.0152 (≈ 0.0466 µM) |
| Cc1cc(-n2ccc3c4c(N)nc(N)nc4ccc32)nc2ccccc12 [Example 88] | 0.061 (≈ 0.179 µM) | > 250 | 62.5 (≈ 184 µM) | 62.5 (≈ 184 µM) | 31.3 (≈ 92 µM) | > 250 | 31.3 (≈ 92 µM) |
| Nc1nc(N)c2c(ccc3c2ccn3-c2ccnc3cc(Cl)ccc23)n1 [Example 89] | 0.244 (≈ 0.676 µM) | 250 (≈ 693 µM) | 15.6 (≈ 43.2 µM) | 0.488 (≈ 1.35 µM) | 0.488 (≈ 1.35 µM) | > 250 | 0.122 (≈ 0.338 µM) |
| Nc1nc(N)c2c(ccc3c2ccn3-c2ccnc3cc(C(F)(F)F)ccc23)n1 [Example 90] | 0.031 (≈ 0.0786 µM) | 250 (≈ 634 µM) | 0.244 (≈ 0.619 µM) | 0.122 (≈ 0.309 µM) | 0.244 (≈ 0.619 µM) | 31.3 (≈ 79.4 µM) | 0.031 (≈ 0.0786 µM) |
| Cc1cc(-n2ccc3c4c(N)nc(N)nc4ccc32)c2ccccc2n1 [Example 91] | 0.031 (≈ 0.0911 µM) | 3.9 (≈ 11.5 µM) | 1.95 (≈ 5.73 µM) | 0.061 (≈ 0.179 µM) | 0.061 (≈ 0.179 µM) | 1.95 (≈ 5.73 µM) | 0.061 (≈ 0.179 µM) |
| Cc1nc2ccccc2nc1-n1ccc2c3c(N)nc(N)nc3ccc21 [Example 92] | 0.122 (≈ 0.357 µM) | > 250 | 7.81 (≈ 22.9 µM) | 1.95 (≈ 5.71 µM) | 0.976 (≈ 2.86 µM) | > 250 | 0.488 (≈ 1.43 µM) |
| Nc1nc(N)c2c(ccc3c2ccn3-c2ccccc2C(F)(F)F)n1 [Example 93] | 0.0076 (≈ 0.0221 µM) | 1.95 (≈ 5.68 µM) | 0.244 (≈ 0.711 µM) | 0.061 (≈ 0.178 µM) | 0.061 (≈ 0.178 µM) | 0.976 (≈ 2.84 µM) | 0.031 (≈ 0.0903 µM) |
| Nc1nc(N)c2c(ccc3c2ccn3-c2ccc([N+](=O)[O-])cc2C(F)(F)F)n1 [Example 94] | 0.061 (≈ 0.157 µM) | 125 (≈ 322 µM) | 31.3 (≈ 80.6 µM) | 0.122 (≈ 0.314 µM) | 0.488 (≈ 1.26 µM) | 62.5 (≈ 161 µM) | 0.122 (≈ 0.314 µM) |
| Nc1nc(N)c2c(ccc3c2ccn3-c2cc(-c3ccccc3)nc3ccccc23)n1 [Example 95] | 15.6 (≈ 38.8 µM) | > 250 | 250 (≈ 621 µM) | 31.3 (≈ 77.8 µM) | 250 (≈ 621 µM) | > 250 | 7.81 (≈ 19.4 µM) |
| Nc1ccc(-n2ccc3c4c(N)nc(N)nc4ccc32)cc1 [Example 96, 7-(4-Aminophenyl)-7H-pyrrolo[3,2-f]-quinazaline-1,3-diamine] | 0.0152 (≈ 0.0524 µM) | 0.976 (≈ 3.36 µM) | 0.244 (≈ 0.84 µM) | 0.488 (≈ 1.68 µM) | 0.031 (≈ 0.107 µM) | 0.488 (≈ 1.68 µM) | 0.244 (≈ 0.84 µM) |
| Nc1nc(N)c2c(ccc3c2ccn3-c2nc3ccccc3s2)n1 [Example 97, 7-(2-Benzothiazolyl)-7H-pyrrolo-[3,2-f]quinazoline-1,3-diamine] | 0.488 (≈ 1.47 µM) | > 250 | > 250 | 250 (≈ 752 µM) | 62.5 (≈ 188 µM) | > 250 | 125 (≈ 376 µM) |
| Cc1cc2c3c(N)nc(N)nc3ccc2n1C [Example 99] | 0.061 (≈ 0.268 µM) | 0.976 (≈ 4.29 µM) | 0.244 (≈ 1.07 µM) | 31.3 (≈ 138 µM) | 0.244 (≈ 1.07 µM) | 1.95 (≈ 8.58 µM) | 31.3 (≈ 138 µM) |
| Cc1cc2c3c(N)nc(N)nc3ccc2n1Cc1cccc(C#N)c1 [Example 101] | 0.0038 (≈ 0.0116 µM) | 3.9 (≈ 11.9 µM) | 0.488 (≈ 1.49 µM) | 0.122 (≈ 0.372 µM) | 0.061 (≈ 0.186 µM) | 3.9 (≈ 11.9 µM) | 0.061 (≈ 0.186 µM) |
| Cc1cc2c3c(N)nc(N)nc3ccc2n1Cc1ccc(C#N)cc1 [Example 102] | 0.061 (≈ 0.186 µM) | 31.3 (≈ 95.3 µM) | 1.95 (≈ 5.94 µM) | 0.976 (≈ 2.97 µM) | 0.244 (≈ 0.743 µM) | 7.81 (≈ 23.8 µM) | 0.976 (≈ 2.97 µM) |
| Nc1nc(N)c2c(ccc3c2cc(Cl)n3Cc2ccccc2)n1 [Example 104, 8-Chloro-7-(phenylmethyl)-7H-pyrrolo-[3,2-f]quinazoline-1,3-diamine] | 0.061 (≈ 0.188 µM) | 31.3 (≈ 96.7 µM) | 3.9 (≈ 12 µM) | 3.9 (≈ 12 µM) | 0.244 (≈ 0.754 µM) | 7.81 (≈ 24.1 µM) | 0.976 (≈ 3.01 µM) |
| Nc1nc(N)c2c(ccc3[nH]c(-c4ccccc4)cc32)n1 [Example 105, 8-Phenyl-7H-pyrrolo[3,2-f]-quinazoline-1,3-diamine] | 62.5 (≈ 227 µM) | > 250 | 62.5 (≈ 227 µM) | 7.81 (≈ 28.4 µM) | 31.3 (≈ 114 µM) | 125 (≈ 454 µM) | 15.6 (≈ 56.7 µM) |
| Cn1c(-c2ccccc2)cc2c3c(N)nc(N)nc3ccc21 [Example 106, 7-Methyl-8-phenyl-7H-pyrrolo[3,2-f]-quinazoline-1,3-diamine] | 31.3 (≈ 108 µM) | > 250 | > 250 | 62.5 (≈ 216 µM) | 3.9 (≈ 13.5 µM) | > 250 | 125 (≈ 432 µM) |
| Nc1nc(N)c2c(ccc3[nH]c4c(c32)CCCC4)n1 [Example 107, 8,9,10,11-Tetrahydro-7H-pyrimido-[4,5-c]carbazole-1,3-diamine] | 125 (≈ 493 µM) | > 250 | 125 (≈ 493 µM) | 62.5 (≈ 247 µM) | 125 (≈ 493 µM) | 125 (≈ 493 µM) | 125 (≈ 493 µM) |
| Nc1nc(N)c2c(ccc3c2c2c(n3Cc3ccccc3)CCCC2)n1 [Example 108, 8,9,10,11-Tetrahydro-7-(phenylmethyl)-7H-pyrimido[4,5-c]carbazole-1,3-diamine] | 0.122 (≈ 0.355 µM) | > 250 | > 250 | > 250 | > 250 | > 250 | 250 (≈ 728 µM) |
| Cn1c2c(c3c4c(N)nc(N)nc4ccc31)CCCC2 [Example 109, 8,9,10,11-Tetrahydro-7-methyl-7H-pyrimido[4,5-c]carbazole-1,3-diamine] | 3.9 (≈ 14.6 µM) | > 250 | > 250 | 62.5 (≈ 234 µM) | 62.5 (≈ 234 µM) | 250 (≈ 935 µM) | 62.5 (≈ 234 µM) |
